This experiment deals with T1, SHP2 protein (Homo sapiens, UniProt Q06124).
T1 sequence (Q06124 1-593): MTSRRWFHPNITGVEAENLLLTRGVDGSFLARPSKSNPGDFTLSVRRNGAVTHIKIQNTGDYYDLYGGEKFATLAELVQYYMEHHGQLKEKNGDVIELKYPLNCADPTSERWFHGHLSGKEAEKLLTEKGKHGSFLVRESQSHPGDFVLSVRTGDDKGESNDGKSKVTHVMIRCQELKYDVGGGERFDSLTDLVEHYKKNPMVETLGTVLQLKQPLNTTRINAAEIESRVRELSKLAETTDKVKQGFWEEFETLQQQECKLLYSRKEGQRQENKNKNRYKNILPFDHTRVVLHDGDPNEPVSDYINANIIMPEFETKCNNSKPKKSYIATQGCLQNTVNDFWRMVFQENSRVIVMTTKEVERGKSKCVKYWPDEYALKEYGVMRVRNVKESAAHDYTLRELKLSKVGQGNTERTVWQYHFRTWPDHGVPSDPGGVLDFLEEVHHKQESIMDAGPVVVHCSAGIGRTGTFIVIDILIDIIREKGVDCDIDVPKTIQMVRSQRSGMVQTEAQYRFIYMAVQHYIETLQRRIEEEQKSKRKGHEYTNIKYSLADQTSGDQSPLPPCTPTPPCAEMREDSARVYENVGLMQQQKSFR
The experiment is described as follows: Measurement of SHP2 protein degradation in NCI-H358 cells (western blotting). In kind it is cell-based. More on the design: endogenous in cells; host or cells: NCI-H358. As to conditions: harvested after 24 hours. An outline of the steps: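 H358 cells in RPMI1640/25 mM HEPES/10% FBS, cultured 24 h, then exposed to compound at final 0.001, 0.01 and 0.1 μM for 24 h against a DMSO control. Lysates were normalised for protein by BCA and probed by western blot for SHP2, with GAPDH as loading control.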

Among the data in patent publication US20260144788A1, “COMPOUND FOR SHP2 PROTEIN DEGRADATION AND MEDICAL USES THEREOF” (UBIX THERAPEUTICS, INC., priority 2022, published 2026) are SHP2% degradation values, retold here.

On to `Cc1ncsc1-c1ccc(CNC(=O)[C@@H]2C[C@@H](O)CN2C(=O)[C@@H](NC(=O)C2(F)CC2)C(C)(C)C)c(OC2CCN(C(=O)C3CCN(c4nccc(Sc5cnc(N6CCC7(CC6)CO[C@@H](C)[C@H]7N)cn5)c4Cl)CC3)CC2)c1` [Example 67, (2S,4R)—N-(2-((1-(1-(4-((5-((3S,4S)-4-amino-3-methyl-2-oxa-8-azaspiro[4.5]decan-8-yl)pyrazin-2-yl)thio)-3-chloropyridin-2-yl)piperidine-4-carbonyl)piperidin-4-yl)oxy)-4-(4-methylthiazol-5-yl)benzyl)-1-((S)-2-(1-fluorocyclopropane-1-carboxamido)-3,3-dimethylbutanoyl)-4-hydroxypyrrolidine-2-carboxamide], for which the SHP2% degradation (0.01 μM) is 94.5% and the SHP2% degradation (0.1 μM) is listed as 96.9%.
`CC(=O)N[C@H](C(=O)N1C[C@H](O)C[C@H]1C(=O)NCc1ccc(-c2scnc2C)cc1OC1CCN(C(=O)C2CCN(c3nccc(Sc4cnc(N5CCC(C)(N)CC5)cn4)c3Cl)CC2)CC1)C(C)(C)C` [Example 76, (2S,4R)-1-((S)-2-acetamido-3,3-dimethylbutanoyl)-N-(2-((1-(1-(4-((5-(4-amino-4-methylpiperidin-1-yl)pyrazin-2-yl)thio)-3-chloropyridin-2-yl)piperidine-4-carbonyl)piperidin-4-yl)oxy)-4-(4-methylthiazol-5-yl)benzyl)-4-hydroxypyrrolidine-2-carboxamide]: the SHP2% degradation is on record as 90.0% (0.01 μM) and 98.7% (0.1 μM).
For `CC(=O)N[C@H](C(=O)N1C[C@H](O)C[C@H]1C(=O)NCc1ccc(-c2scnc2C)cc1OC1CCN(C(=O)C2CCN(c3nccc(Sc4cnc(N5CCC6(CC5)CO[C@@H](C)[C@H]6N)cn4)c3Cl)CC2)CC1)C(C)(C)C` [Example 77, (2S,4R)-1-((S)-2-acetamido-3,3-dimethylbutanoyl)-N-(2-((1-(1-(4-((5-((3S,4S)-4-amino-3-methyl-2-oxa-8-azaspiro[4.5]decan-8-yl)pyrazin-2-yl)thio)-3-chloropyridin-2-yl)piperidine-4-carbonyl)piperidin-4-yl)oxy)-4-(4-methylthiazol-5-yl)benzyl)-4-hydroxypyrrolidine-2-carboxamide], the SHP2% degradation was 94.4% (0.01 μM) and 98.0% (0.1 μM).
On to `CC(=O)N[C@H](C(=O)N1C[C@H](O)C[C@H]1C(=O)NCc1ccc(-c2scnc2C)cc1OC1CCN(C(=O)C2CCN(c3nccc(Sc4cnc(N5CCC(C)(CN)CC5)c(CO)n4)c3Cl)CC2)CC1)C(C)(C)C` [Example 78, (2S,4R)-1-((S)-2-acetamido-3,3-dimethylbutanoyl)-N-(2-((1-(1-(4-((5-(4-(aminomethyl)-4-methylpiperidin-1-yl)-6-(hydroxymethyl)pyrazin-2-yl)thio)-3-chloropyridin-2-yl)piperidine-4-carbonyl)piperidin-4-yl)oxy)-4-(4-methylthiazol-5-yl)benzyl)-4-hydroxypyrrolidine-2-carboxamide], for which the SHP2% degradation worked out at 98.0% (0.01 μM) and 99.4% (0.1 μM).
As for `CC(=O)N[C@H](C(=O)N1C[C@H](O)C[C@H]1C(=O)NCc1ccc(-c2scnc2C)cc1OC1CCN(C(=O)C2CCN(c3nccc(Sc4cnc(N5CCC(C)(N)CC5)c(CO)n4)c3Cl)CC2)CC1)C(C)(C)C` [Example 79, (2S,4R)-1-((S)-2-acetamido-3,3-dimethylbutanoyl)-N-(2-((1-(1-(4-((5-(4-amino-4-methylpiperidin-1-yl)-6-(hydroxymethyl)pyrazin-2-yl)thio)-3-chloropyridin-2-yl)piperidine-4-carbonyl)piperidin-4-yl)oxy)-4-(4-methylthiazol-5-yl)benzyl)-4-hydroxypyrrolidine-2-carboxamide], the SHP2% degradation was determined as 96.1% (0.01 μM) and 99.9% (0.1 μM).
In the case of `CC(=O)N[C@H](C(=O)N1C[C@H](O)C[C@H]1C(=O)NCc1ccc(-c2scnc2C)cc1OC1CCN(C(=O)C2CCN(c3nccc(Sc4cnc(N5CCC6(CC5)CO[C@@H](C)[C@H]6N)c(CO)n4)c3Cl)CC2)CC1)C(C)(C)C` [Example 80, (2S,4R)-1-((S)-2-acetamido-3,3-dimethylbutanoyl)-N-(2-((1-(1-(4-((5-((3S,4S)-4-amino-3-methyl-2-oxa-8-azaspiro[4.5]decan-8-yl)-6-(hydroxymethyl)pyrazin-2-yl)thio)-3-chloropyridin-2-yl)piperidine-4-carbonyl)piperidin-4-yl)oxy)-4-(4-methylthiazol-5-yl)benzyl)-4-hydroxypyrrolidine-2-carboxamide], the SHP2% degradation was 99.6% (0.01 μM) and 99.5% (0.1 μM).
For `CC(=O)N[C@H](C(=O)N1C[C@H](O)C[C@H]1C(=O)NCc1ccc(-c2scnc2C)cc1OC1CCN(C(=O)C2CCN(c3nccc(Sc4nc(CO)c(N5CCC(C)(CN)CC5)nc4C)c3Cl)CC2)CC1)C(C)(C)C` [Example 81, (2S,4R)-1-((S)-2-acetamido-3,3-dimethylbutanoyl)-N-(2-((1-(1-(4-((5-(4-(aminomethyl)-4-methylpiperidin-1-yl)-6-(hydroxymethyl)-3-methylpyrazin-2-yl)thio)-3-chloropyridin-2-yl)piperidine-4-carbonyl)piperidin-4-yl)oxy)-4-(4-methylthiazol-5-yl)benzyl)-4-hydroxypyrrolidine-2-carboxamide] the same measures were 85.6% and 99.6%.
Taken in the same sequence, the figures for `CC(=O)N[C@H](C(=O)N1C[C@H](O)C[C@H]1C(=O)NCc1ccc(-c2scnc2C)cc1OC1CCN(C(=O)C2CCN(c3cccc(Sc4cnc(N5CCC(C)(CN)CC5)cn4)c3Cl)CC2)CC1)C(C)(C)C` [Example 82, (2S,4R)-1-((S)-2-acetamido-3,3-dimethylbutanoyl)-N-(2-((1-(1-(3-((5-(4-(aminomethyl)-4-methylpiperidin-1-yl)pyrazin-2-yl)thio)-2-chlorophenyl)piperidine-4-carbonyl)piperidin-4-yl)oxy)-4-(4-methylthiazol-5-yl)benzyl)-4-hydroxypyrrolidine-2-carboxamide] were 94.9% and 97.4%.
Take `CC(=O)N[C@H](C(=O)N1C[C@H](O)C[C@H]1C(=O)NCc1ccc(-c2scnc2C)cc1OC1CCN(C(=O)C2CCN(c3cccc(Sc4cnc(N5CCC(C)(CN)CC5)c(CO)n4)c3Cl)CC2)CC1)C(C)(C)C` [Example 83, (2S,4R)-1-((S)-2-acetamido-3,3-dimethylbutanoyl)-N-(2-((1-(1-(3-((5-(4-(aminomethyl)-4-methylpiperidin-1-yl)-6-(hydroxymethyl)pyrazin-2-yl)thio)-2-chlorophenyl)piperidine-4-carbonyl)piperidin-4-yl)oxy)-4-(4-methylthiazol-5-yl)benzyl)-4-hydroxypyrrolidine-2-carboxamide]: the SHP2% degradation reads like this: (0.01 μM) 97.8%; (0.1 μM) 99.7%.
As for `CC(=O)N[C@H](C(=O)N1C[C@H](O)C[C@H]1C(=O)NCc1ccc(-c2scnc2C)cc1OC1CCN(C(=O)C2CCN(c3cccc(Sc4cnc(N5CCC(C)(N)CC5)c(CO)n4)c3Cl)CC2)CC1)C(C)(C)C` [Example 84, (2S,4R)-1-((S)-2-acetamido-3,3-dimethylbutanoyl)-N-(2-((1-(1-(3-((5-(4-amino-4-methylpiperidin-1-yl)-6-(hydroxymethyl)pyrazin-2-yl)thio)-2-chlorophenyl)piperidine-4-carbonyl)piperidin-4-yl)oxy)-4-(4-methylthiazol-5-yl)benzyl)-4-hydroxypyrrolidine-2-carboxamide], the SHP2% degradation is, setting by setting: (0.01 μM) 92.4%; (0.1 μM) 99.9%.
`CC(=O)N[C@H](C(=O)N1C[C@H](O)C[C@H]1C(=O)NCc1ccc(-c2scnc2C)cc1OC1CCN(C(=O)C2CCN(c3cccc(Sc4cnc(N5CCC6(CC5)CO[C@@H](C)[C@H]6N)c(CO)n4)c3Cl)CC2)CC1)C(C)(C)C` [Example 85, (2S,4R)-1-((S)-2-acetamido-3,3-dimethylbutanoyl)-N-(2-((1-(1-(3-((5-((3S,4S)-4-amino-3-methyl-2-oxa-8-azaspiro[4.5]decan-8-yl)-6-(hydroxymethyl)pyrazin-2-yl)thio)-2-chlorophenyl)piperidine-4-carbonyl)piperidin-4-yl)oxy)-4-(4-methylthiazol-5-yl)benzyl)-4-hydroxypyrrolidine-2-carboxamide]: the SHP2% degradation reads like this: (0.01 μM) 98.3%; (0.1 μM) 99.9%.
Taken in the same sequence, the figures for `Cc1ncsc1-c1ccc(CNC(=O)[C@@H]2C[C@@H](O)CN2C(=O)[C@@H](NC(=O)CC#N)C(C)(C)C)c(OC2CCN(C(=O)C3CCN(c4nccc(Sc5cnc(N6CCC7(CC6)CO[C@@H](C)[C@H]7N)c(CO)n5)c4Cl)CC3)CC2)c1` [Example 88, (2S,4R)—N-(2-((1-(1-(4-((5-((3S,4S)-4-amino-3-methyl-2-oxa-8-azaspiro[4.5]decan-8-yl)-6-(hydroxymethyl)pyrazin-2-yl)thio)-3-chloropyridin-2-yl)piperidine-4-carbonyl)piperidin-4-yl)oxy)-4-(4-methylthiazol-5-yl)benzyl)-1-((S)-2-(2-cyanoacetamido)-3,3-dimethylbutanoyl)-4-hydroxypyrrolidine-2-carboxamide] were 97.0% and 99.9%.
